Laboratory results as given in US20230382904A1, “SUBSTITUTED 4-([1,2,4]TRIAZOLO[1,5-a]PYRIDIN-6-YL)THIOPHENE-2-CARBOXAMIDE DERIVATIVES AND USE THEREOF” (The Johns Hopkins University, priority 2020, published 2023).

Legend:
[1] = Ischemia/Reperfusion (I/R) rat model, optokinetic tracking; format: in vivo; conditions: prophylactic setting, after a 20 minute ischemic event
Procedure: The animals were placed under anesthesia (Rompun (Xylazin als Xylazinhydrochlorid) 2%, Bayer, PZN-1320422, Ketavet (Ketaminhydrochlorid) 100 mg/mL, Pfizer, PZN-3151811) and the pupil on the right eye dilated (Neosynephrin-POS 5% Augentropfen, […], PZN 0828584).
When anesthetized, local anesthetic eye drops (Alcaine, lokalanästhetische Augentropfen, Alcon, 37516058) were applied to the right eye. The rat is on the left side. After a short exposure time, a 30G cannula was inserted laterally into the anterior chamber of the eye. To do this, the eye was fixed with a cotton swab so that it emerged from the eye socket. Once the cannula was placed, the eye was carefully released. The 30G cannula was connected via infusion set to a bag of isotonic infusion solution. The infusion bag hung in a pressure cuff. The pressure was regulated via the pressure cuff and the manometer. For the model, the intraocular pressure is increased to 120 mm Hg. The duration is 20 min. If the cannula fits correctly, the eye turns white, because the blood circulation was interrupted. During treatment, the rats lied on a warm mat (level 2). It was necessary to observe the anesthetic state of the animal. […]
For the optomotry readout only the spatial resolution is measured (spatial frequency). Both eyes were measured. […]

[2] = In vitro PhysChem properties; format: physicochemical
[3] = system: primary murine retinal ganglion cells; assay: Retinal ganglion cell (RGC) viability assay; format: cell-based; conditions: among compounds 4, 19, 94 and 112
Procedure: The RGC assay detected the viability of primary murine retinal ganglion cells via Cell Titer Glo (Promega), using a previously described assay (Proc. Natl. Acad. Sci. USA. 2013, 110(10), 4045-50), which is incorporated herein by reference in its entirety.
RGCs were freshly isolated from approximately P2 murine retinas by immunopanning using mouse anti-CD90 coated plates. Cells are seeded into poly-D-lysine or laminin coated plates in Neurobasal medium supplemented by 1% Pen/Strep (Gibco 15140-122), 0.01 mg/ml insulin, 1 mM sodium pyruvate, 1% of 100× Sato (400 mg transferrin, 400 mg BSA, 0.25 mg progesterone, 64 mg putrescine, 160 μg sodium selenite in 40 mL Neurobasal medium), 0.04 μg/ml triiodo-thyronine, 2 mM L-glutamine, 0.05 mg/ml N-acetyl cysteine, 10 μM forskolin, 2% 50× B27 (Gibco 17504-044).
For the assay 500-2000 cells per well in a volume of 40 μl were used (384 MTP format). After 72 hours 20 μl Cell Titer Glo reagent was added and viability is measured via luminescent quantitation of ATP. The amount of ATP was directly proportional to the number of cells present in culture.

[4] = Mouse light damage model (serial OCT and serial ERG); format: in vivo; conditions: versus vehicle
Procedure: After two weeks (14 days) acclimation in dim light (under 10-30 lux), female BALBc/J (10-12 weeks) were dark-adapted for 24 hrs. All compound injections were done in darkness with din-red light as needed. All mice were placed in light box after applying dilator (tropicamide or phenylephirine) topically. Then light was left on for 4 h with ˜3000 lux followed by dark recovery at the same condition with dark adaptation until any experimental procedure is ready or being placed in dim light condition (under 10-30 lux). Mice were then followed for 3-7 days with OCT, ERG, functional testing, and/or immunohistochemical analysis.

DLK pathway activation = assay: Mouse optic nerve crush, p-JUN immunoreactivity in RGC layer; format: in vivo; conditions: compared to RGCs treated with the vehicle
Procedure: Approximately three-month-old male C57BL/6 mice were anesthetized with 100/10 mg/kg of Ketamine/Xylazine followed by topical administration of proparacaine. Under the binocular operating scope, optic nerves were surgically exposed and crushed with Dumont N7 self-closing forceps 1-2 mm behind the globe. A small incision was made at the conjunctiva located at lateral orbit of eye globe using spring scissors. To avoid bleeding from the vasculature, minimum incision was continued until the optic nerve was exposed. After clean exposure, the optic nerve was grasped at approximately 1-2 mm from the globe for 3-7 seconds using the fine micro forceps. After careful removal of the micro forceps, the globe was relocated and Tobramycin was administered. Ten days after nerve crush, eyes were enucleated and fixed and surviving RGC was immunostained for SNCG, RBPMS and βIII-tubulin. The retinas were then imaged with a Nikon Eclipse TE2000-5 fluorescence microscope and Plan-fluor 40 Å˜/0.6 objective. […] RGCs were counted manually from each image. In a separate cohort of animals, optic nerves and retinas were sectioned and stained for phospho-JUN (an indicator of DLK pathway activation) 24 hours after optic nerve crush. Intravitreal injection, optic nerve crush, immunofluorescence, and RGC counting were performed in a masked fashion.

[5] = In vitro PK properties (metabolic stability); format: in vitro ADME
Procedure: Metabolic stabilities in rat hepatocytes were determined by incubating the compounds at low concentrations (e.g., below 1 μM) and at low cell numbers (e.g., at 1×10^6 cells/ml) to ensure linear kinetics. 7 time-points from the incubation mixture were withdrawn for analysis to define the half-life of the compound. From that half-life the intrinsic clearance in hepatocytes was calculated and used further to extrapolate the blood clearance (using the well-stirred model) and the corresponding Fmax value (maximum expected bioavailability after first pass of the liver) for the compounds. The CL and Fmax values reflect Phase I and II metabolism in hepatocytes. To minimize the influence of organic solvents in the incubation mixture their content was limited to max. 1% for ACN or max. 0.2% for DMSO. The values given in row 5 in the table in FIG. 1 are rat hepatocytes CLblood [L/h/kg] and rat hepatocytes Fmax [%].

chemical stability [2]: chemically stable | metabolic stability [5]: metabolically labile
Compound: CC[C@H](NC(=O)c1cc(-c2cc(C(=O)N[C@@H](C)CC)c3nc(N)nn3c2)cs1)c1ccc(F)cc1 [Compound 112, 2-Amino-N-[(2S)-butan-2-yl]-6-(5-{[(1S)-1-(4-fluorophenyl)propyl]carbamoyl}thiophen-3-yl)[1,2,4]triazolo[1,5-a]pyridine-8-carboxamide]
retained vision [1]: ~80% | activity in RGC assay [3]: most active | a wave amplitude in photoreceptors ([4]; serial ERG): higher | b wave amplitude in inner retinal cells ([4]; serial ERG): higher | outer retinal layer (ORL) thickness ([4]; serial OCT): higher | p-cJun intensity in the RGCs (DLK pathway activation): decreased
